According to patent US20260206752A1, “MOLECULE HAVING PESTICIDAL UTILITY AND PROCESSES RELATED THERETO” (CORTEVA AGRISCIENCE LLC, priority 2022, published 2026):

Columns and labels:
[1] = test system: root knot nematode, soybean cyst nematode, root lesion nematode; assay: Average of Delta % over the RKN, SCN and RLN tests of Example One; format: in vivo
Experimental: We conducted an experiment to evaluate comparative bioactivity of S1, R1, and B1 against the root knot nematode (RKN), Meloidogyne incognita. Each of S1, R1, and B1 were tested at six rates: 125, 62.5, 31.25, 15.6, 7.8, 3.9, and 2 ppm. Cucumber seeds (Cucumis sativus) were planted in a sandy loam soil in 3-inch pots. After 6 days of germination, the seedlings were treated with the test compounds dissolved in 5% acetone in water. The treated plants were inoculated with 4,000 second stage juveniles (J2s) of M. incognita. Each experimental unit was replicated three times. The inoculated plants were kept in a Greenhouse for 14 days (about 27° C.) before evaluating the amount of root damage (galls) called Galling Index (GI) based on a scale of 0-10; where 0=no galls (100% control), and 10=maximum galls (no control). […] Effective concentration (EC) values based on the % control of the nematode by S1, R1 and B1 were calculated by probit analysis. […]
We carried out an in-vitro experiment to compare activity of S1, R1, and B1 with each other against the root lesion nematode (RLN), Pratylechus penetrans. […] Aliquots of 1 mL of the nematode suspension was evaluated under a microscope for mortality after 48 hours. RLN were counted, and the number of dead and active nematodes was used to calculate % mortality from which lethal concentration (LC) values were generated.

[2] = test system: Heterodera glycines second stage juveniles (J2); assay: Soybean Cyst Nematode (SCN) in-vitro mortality test; format: in vivo; settings: SCN LC50
Experimental: We carried out an in-vitro experiment to compare activity of S1, R1, and B1 with each other against the soybean cyst nematode (SCN): Heterodera glycines second stage juveniles (J2). Each of S1, R1, and B1 were tested at six rates: 62.5, 15.6, 4, 1, 0.25, and 0 ppm (untreated control, UTC with three replications of each treatment. Equal volume of nematode suspension was added to an equal volume of compound dissolved in 0.5% DMSO (dimethyl sulfoxide) in water. The nematode plus compound was incubated at room temperature (about 25° C.) on a shaker at 95 revolutions per minutes (RPM). Aliquots of 0.5 milliliters (mL) of the nematode suspension were evaluated under a microscope for mortality after 48 hours of incubation. SCN J2s were counted, and the number of dead and active nematodes was used to calculate % SCN mortality which was used to generate lethal concentration (LC) values by probit analysis.

Pratylechus penetrans = assay: Root Lesion Nematode (RLN) in-vitro mortality test; format: in vivo; settings: RLN LC50
Experimental: We carried out an in-vitro experiment to compare activity of S1, R1, and B1 with each other against the root lesion nematode (RLN), Pratylechus penetrans. Each of S1, R1, and B1 were tested at six rates: 62.5, 15.6, 4, 1, 0.25, and 0 ppm (UTC) with three replications of each treatment. Equal volume of nematode suspension was added to an equal volume of each of S1, R1, and B1 dissolved in 0.5% DMSO (dimethyl sulfoxide) in water in 25 mL vials. The treated nematode suspension was incubated at room temperature (about 25° C.) on a shaker (95 RPM). Aliquots of 1 mL of the nematode suspension was evaluated under a microscope for mortality after 48 hours. RLN were counted, and the number of dead and active nematodes was used to calculate % mortality from which lethal concentration (LC) values were generated.

Meloidogyne incognita [3] = assay: Root Knot Nematode (RKN) test on cucumber seedlings in pots, Galling Index converted to % control, EC by probit analysis; format: in vivo; settings: RKN EC50
Experimental: We conducted an experiment to evaluate comparative bioactivity of S1, R1, and B1 against the root knot nematode (RKN), Meloidogyne incognita. Each of S1, R1, and B1 were tested at six rates: 125, 62.5, 31.25, 15.6, 7.8, 3.9, and 2 ppm. Cucumber seeds (Cucumis sativus) were planted in a sandy loam soil in 3-inch pots. After 6 days of germination, the seedlings were treated with the test compounds dissolved in 5% acetone in water. The treated plants were inoculated with 4,000 second stage juveniles (J2s) of M. incognita. Each experimental unit was replicated three times. The inoculated plants were kept in a Greenhouse for 14 days (about 27° C.) before evaluating the amount of root damage (galls) called Galling Index (GI) based on a scale of 0-10; where 0=no galls (100% control), and 10=maximum galls (no control). The GI was converted to % control using the formula (10−GI)×10; where GI=Gall Index. Effective concentration (EC) values based on the % control of the nematode by S1, R1 and B1 were calculated by probit analysis.

Meloidogyne incognita [4] = assay: Root knot nematode comparative bioactivity test at 600 g ai/ha, drench on cucumber seedlings; format: in vivo; settings: 14 days after inoculation, (10−GI)×10
Experimental: We carried out an experiment to evaluate comparative bioactivity of S1, C1, C2, C3, C4, and C5 against the root knot nematode, Meloidogyne incognita. Each compound was tested at 600 grams of active ingredient per hectare (g ai/ha) and was replicated three times. Cucumber seeds (Cucumis sativus) were planted in a sandy loam soil in 3-inch pots. After six (6) days of planting, the seedlings were treated with the test compounds dissolved in 5% acetone in water by drench application. The plants were inoculated with 4,000 second stage juveniles (J2s) of M. incognita. The inoculated plants were kept in a Greenhouse for 14 days (temperature 27° C.) before evaluating the amount of root damage (galls) called Galling Index (GI) based on a scale of 0-10; where 0=no galls (100% nematode control), and 10=maximum galls (no nematode control). The GI was converted to % nematode control using the formula ((10−GI)×10); where GI=Gall Index. The data were analyzed by Analysis of Variance using JMP (John's Macintosh Project) statistical software and the means were separated using Tukey's HSD (α=0.05).

M. incognita = assay: Residuality test in soil against root knot nematode; format: in vivo, Meloidogyne incognita; settings: 1250 g ai/ha on bare soil, aged four weeks, then seedlings and 4,000 J2s, evaluated after 14 days
Experimental: A residuality test was conducted to compare the residual control or persistence of S1, R1, C1, C2, C3, C4, and C5 in soil. Each compound was applied to a bare sandy loam soil (without plant or nematode) in a 3-inch pot at 1250 g ai/ha. The treated soils were kept in a Greenhouse (temperature 27° C.) under regular irrigation for four weeks. At the end of the four weeks, six-day old cucumber (Cucumis sativus) seedlings were transplanted into the treated soil and inoculated with 4,000 second stage juveniles of M. incognita. Each treatment was replicated four times. The inoculated plants were kept in a Greenhouse for 14 days (temperature 27° C.) before evaluating the amount of root damage (galls) called Galling Index (GI) based on a scale of 0-10; where 0=no galls (100% nematode control), and 10=maximum galls (no nematode control). The GI were converted to % control using the formula ((10−GI)×10); where GI=Gall Index. The data were analyzed by Analysis of Variance using JMP (John's Macintosh Project) statistical software and the means were separated using Tukey's HSD (α=0.05).

Row | SMILES | Delta % on average, S1 versus B1 [1] [%] | Delta % vs B1 [2] [%] | Delta % vs B1 (Pratylechus penetrans) [%] | Delta % vs B1 (Meloidogyne incognita [3]) [%] | Mean Percent Control (Meloidogyne incognita [4]) [%] | Mean Percent Control (M. incognita) [%]
1 | CCC(CC)[C@H](C)NC(=O)c1ccoc1Cl [Molecule S1, (S)-2-chloro-N-(3-ethylpentan-2-yl)furan-3-carboxamide] | 564 | 1194 | 259 | 240 |  | 
2 | C[C@H](NC(=O)c1ccoc1Cl)C(C)(C)C [Molecule C1] |  |  |  |  | 54 | 27.5
